Reference: ChEMBL document CHEMBL1130541, “Investigation into the preferred conformation of gabapentin for interaction with its binding site on the 2 subunit of a calcium channel” (Bioorg Med Chem Lett, 1997)

Tests used:
[1] = Binding affinity against alpha2-delta subunit of rat calcium channel
Rattus norvegicus = species on record: Rattus norvegicus; assay: Percent inhibition of binding to alpha2-delta subunit of rat calcium channel at 10 uM

SMILES	IC50 [1] [nM]	inhibition (Rattus norvegicus) [%]
C[C@H]1CC[C@](CN)(CC(=O)O)CC1	–	17
C[C@@H]1C[C@H](C)C[C@@](CN)(CC(=O)O)C1	143	–
C[C@H]1CC[C@@](CN)(CC(=O)O)CC1	420	–
C[C@@H]1C[C@H](C)C[C@](CN)(CC(=O)O)C1	–	38
